For data set [1], the system named is male mice. The data set can be described thus: Pentobarbital-induced hypothermia (Experiment 1). In kind it is in vivo. The following applies: i.v. 10 min after pentobarbital 55 mg/kg i.p.; rectal temperature 30 min after test compound; dose reducing hypothermia of control group by 1.5° C. The procedure: Pentobarbital-induced hypothermia:
Nine male mice weighing 18 to 22 g were used for each dosage of the test compounds. Mice were given i.v. various doses of TRH or tested compounds 10 min. after pentobarbital (55 mg/kg i.p.). Rectal temperature was measured before pentobarbital dosing and immediately before and 30 min. after the test compounds. Effects of test compounds were evaluated as ED1.5° C., the dose required to reduce by 1.5° C. pentobarbital-hypothermia of control group of mice which received only pentobarbital and saline.

Data set [2] has as its system male mice. The data set can be described thus: Disturbance of consciousness induced by concussive head injury (Experiment 2). The following applies: i.v. 10 min before concussive head injury, dose shortening spontaneous movement time of control group by 50%; for ED50: Mus musculus, iv, read-out: Onset time of spontaneous movement ED50%. In kind it is in vivo. The procedure: Disturbance of consciousness induced by concussive head injury:
Nine male mice weighing 18 to 22 g were used for each dosage of the test compounds. An acrylate weight containing lead (20.5 g, 19 mm in both diameter and thickness) was dropped to the head of mice from a 18 cm height. Mice were induced loss of consciousness and they remained motionless for some period. The time from the shock up to the onset of spontaneous movement was recorded as the spontaneous movement time. Test compounds were administered intravenously 10 min. before adding concussive head injury and effects of test compounds were evaluated as ED50%, the dose required to shorten by 50% the spontaneous movement time of control group.

In data set [3] the test system is male mice. The note with it: mouse, in vivo, iv.
Data set [4] concerns male mice. The data set can be described thus: Acute toxicity (Experiment 3). The note with it: intravenous.

Where two headings read alike, the source gives them in different places.

`Cn1cnc(CC(NC(=O)C2CC(=O)N2)C(=O)N2CCCC2C(N)=O)c1` [Example 19, N^α -[(s)-2-azetidinone-4-carbonyl]-N^.tau. -methyl-L-histidyl-L-prolinamide]: the “Reversal effect against pentobarbital-hypothermia ED1.5° C.” value (from here on “Reversal effect”) in the data set with male mice [1] came out at 0.004 mg/kg. As usually defined, the ED50 is the dose at which the effect has come halfway, by size or by number of responders. Consider `NC(=O)[C@@H]1CCCN1C(=O)[C@H](Cc1c[nH]cn1)NC(=O)[C@@H]1CC(=O)N1` [Example 1, N^α -[(S)-2-azetidinone-4-carbonyl]-L-histidyl-L-prolinamide], for which, in the data set on male mice [2], the ED50 is 0.1 mg/kg. Besides, in the data set with male mice [3], the “LD50 (i.v.)” value is on record as “higher than 1493 mg/kg”. Besides, the “Reversal effect” value in the data set on male mice [1] was 0.01 mg/kg. With `O=C1C[C@@H](C(=O)N[C@@H](Cc2c[nH]cn2)C(=O)N2CCC[C@H]2C(=O)NCCO)N1` [Example 4, N^α -[(S)-2-azetidinone-4-carbonyl]-L-histidyl-N-(2-hydroxyethyl)-L-prolinamide], in the data set with male mice [2], the ED50 was found to be 0.35 mg/kg. `NC(=O)[C@@H]1CSCN1C(=O)[C@H](Cc1c[nH]cn1)NC(=O)[C@@H]1CC(=O)N1` [Example 6, 3-[N^α -[(S)-2-azetidinone-4-carbonyl]-L-histidyl]-L-thiazolidine-4-carboxamide]: the “Reversal effect” value in the data set with male mice [1] came out at 0.05 mg/kg. Take `NC(=O)[C@@H]1CCCN1C(=O)[C@H](Cc1cnc[nH]1)NC(=O)[C@@H]1CCC(=O)N1` [TRH, L-pyroglutamyl-L-histidyl-L-prolinamide, reference compound]: the “Onset time of spontaneous movement ED50%” value in the data set with male mice [2] is reported as 2.5 mg/kg. Besides, the “Reversal effect” value in the data set with male mice [1] is on record as 0.1 mg/kg. For the same compound, the “LD50 (i.v.)” value in the data set on male mice [4] came to 751 mg/kg.

Source of the values: patent publication US4564609A, “4-Substituted-2-azetidinone compound, process of producing the compounds, and medicaments containing the compounds” (Yamanouchi Pharmaceutical Co., Ltd., priority 1983, dated 1986).
